Assay results reported in ChEMBL document CHEMBL3885861, “Open TG-GATES”.

Species: Rattus norvegicus
Test: Open TG-GATES - Regimen: Daily Repeat
Type: toxicity, organism-based, Sprague-Dawley
Design: regimen Daily Repeat, gender Male, age 6 weeks
Conditions: in vivo, po, 100 mg/kg, route gavage, dose level Middle; for APTT / Bas / Eos / Fbg / Hb / Ht / Lym / MCH / MCHC / MCV / Mono / Neu / PT / Plat / RBC / Ret / WBC: tissue Blood; for KIDNEY_L / KIDNEY_R / KIDNEY_TOTAL: tissue Kidney; for LIVER: tissue Liver; for A/G / ALP / ALT / AST / BUN / CRE / Ca / Cl / DBIL / GLC / IP / K / LDH / Na / PL / RALB / TBIL / TC / TG / TP / gamma-GTP: tissue Plasma

Clc1c(Cl)c(Cl)c(Cl)c(Cl)c1Cl [PERCHLOROBENZENE]
TERMINAL_BW (72 h, time 3 day): 223.3 g | APTT (72 h, time 3 day): 15.9 s | Bas (72 h, time 3 day): 0% | Eos (72 h, time 3 day): 1.2% | Fbg (72 h, time 3 day): 221.4 mg/dL | Hb (72 h, time 3 day): 14.1 g/dL | Ht (72 h, time 3 day): 42.1% | Lym (72 h, time 3 day): 73.2% | MCH (72 h, time 3 day): 21.7 pg | MCHC (72 h, time 3 day): 33.5% | MCV (72 h, time 3 day): 64.8 fL | Mono (72 h, time 3 day): 7.4% | Neu (72 h, time 3 day): 18.2% | PT (72 h, time 3 day): 11.2 s | Plat (72 h, time 3 day): 104.2 x10_4/uL | RBC (72 h, time 3 day): 650.6 x10_4/ul | Ret (72 h, time 3 day): 7.5% | WBC (72 h, time 3 day): 113.8 x10_2/uL | KIDNEY_L (72 h, time 3 day): 1 g | KIDNEY_R (72 h, time 3 day): 1 g | KIDNEY_TOTAL (72 h, time 3 day): 2 g | LIVER (72 h, time 3 day): 13.1 g | A/G (72 h, time 3 day): 1.8 | ALP (72 h, time 3 day): 823 IU/L | ALT (72 h, time 3 day): 43.4 IU/L | AST (72 h, time 3 day): 65.8 IU/L | BUN (72 h, time 3 day): 16 mg/dL | CRE (72 h, time 3 day): 0.5 mg/dL | Ca (72 h, time 3 day): 10.6 mg/dL | Cl (72 h, time 3 day): 106.2 meq/L | DBIL (72 h, time 3 day): 0.006 mg/dL | GLC (72 h, time 3 day): 194.8 mg/dL | IP (72 h, time 3 day): 8.7 mg/dL | K (72 h, time 3 day): 5.2 meq/L | LDH (72 h, time 3 day): 121.4 IU/L | Na (72 h, time 3 day): 139 meq/L | PL (72 h, time 3 day): 168 mg/dL | RALB (72 h, time 3 day): 3.7 g/dL | TBIL (72 h, time 3 day): 0.4 mg/dL | TC (72 h, time 3 day): 91.8 mg/dL | TG (72 h, time 3 day): 162.4 mg/dL | TP (72 h, time 3 day): 5.8 g/dL | gamma-GTP (72 h, time 3 day): 1.6 IU/L | TERMINAL_BW ([…], time 7 day): 265.6 g | TERMINAL_BW ([…], time 14 day): 308.5 g | TERMINAL_BW ([…], time 28 day): 338.7 g | APTT ([…], time 7 day): 17.2 s | Bas ([…], time 7 day): 0% | Eos ([…], time 7 day): 1.2% | Fbg ([…], time 7 day): 238.8 mg/dL | Hb ([…], time 7 day): 14.5 g/dL | Ht ([…], time 7 day): 43.3% | Lym ([…], time 7 day): 64.2% | MCH ([…], time 7 day): 21.3 pg | MCHC ([…], time 7 day): 33.4% | MCV ([…], time 7 day): 63.7 fL | Mono ([…], time 7 day): 14.4% | Neu ([…], time 7 day): 20.4% | PT ([…], time 7 day): 11.7 s | Plat ([…], time 7 day): 115.6 x10_4/uL | RBC ([…], time 7 day): 680.8 x10_4/ul | Ret ([…], time 7 day): 5.7% | WBC ([…], time 7 day): 104 x10_2/uL | APTT ([…], time 14 day): 19.7 s | Bas ([…], time 14 day): 0% | Eos ([…], time 14 day): 1% | Fbg ([…], time 14 day): 263.2 mg/dL | Hb ([…], time 14 day): 14.5 g/dL | Ht ([…], time 14 day): 43.3% | Lym ([…], time 14 day): 77.6% | MCH ([…], time 14 day): 20.9 pg | MCHC ([…], time 14 day): 33.6% | MCV ([…], time 14 day): 62.3 fL | Mono ([…], time 14 day): 8% | Neu ([…], time 14 day): 13.6% | PT ([…], time 14 day): 12.2 s | Plat ([…], time 14 day): 117.2 x10_4/uL | RBC ([…], time 14 day): 695 x10_4/ul | Ret ([…], time 14 day): 4.6% | WBC ([…], time 14 day): 156.2 x10_2/uL | APTT ([…], time 28 day): 23.8 s | Bas ([…], time 28 day): 0% | Eos ([…], time 28 day): 2.2% | Fbg ([…], time 28 day): 320.6 mg/dL | Hb ([…], time 28 day): 15.3 g/dL | Ht ([…], time 28 day): 46% | Lym ([…], time 28 day): 65% | MCH ([…], time 28 day): 19.7 pg | MCHC ([…], time 28 day): 33.2% | MCV ([…], time 28 day): 59.4 fL | Mono ([…], time 28 day): 15.4% | Neu ([…], time 28 day): 17.8% | PT ([…], time 28 day): 15.8 s | Plat ([…], time 28 day): 100.2 x10_4/uL | RBC ([…], time 28 day): 774.8 x10_4/ul | Ret ([…], time 28 day): 3% | WBC ([…], time 28 day): 182.8 x10_2/uL | KIDNEY_L ([…], time 7 day): 1.2 g | KIDNEY_R ([…], time 7 day): 1.2 g | KIDNEY_TOTAL ([…], time 7 day): 2.3 g | KIDNEY_L ([…], time 14 day): 1.3 g | KIDNEY_R ([…], time 14 day): 1.3 g | KIDNEY_TOTAL ([…], time 14 day): 2.5 g | KIDNEY_L ([…], time 28 day): 1.5 g | KIDNEY_R ([…], time 28 day): 1.5 g | KIDNEY_TOTAL ([…], time 28 day): 2.9 g | LIVER ([…], time 7 day): 17.2 g | LIVER ([…], time 14 day): 21.6 g | LIVER ([…], time 28 day): 29.5 g | A/G ([…], time 7 day): 1.9 | ALP ([…], time 7 day): 631.4 IU/L | ALT ([…], time 7 day): 33 IU/L | AST ([…], time 7 day): 59.2 IU/L | BUN ([…], time 7 day): 17.2 mg/dL | CRE ([…], time 7 day): 0.7 mg/dL | Ca ([…], time 7 day): 10.7 mg/dL | Cl ([…], time 7 day): 104.2 meq/L | DBIL ([…], time 7 day): 0.01 mg/dL | GLC ([…], time 7 day): 179.8 mg/dL | IP ([…], time 7 day): 7.9 mg/dL | K ([…], time 7 day): 4.9 meq/L | LDH ([…], time 7 day): 127.8 IU/L | Na ([…], time 7 day): 137.8 meq/L | PL ([…], time 7 day): 191.6 mg/dL | RALB ([…], time 7 day): 3.9 g/dL | TBIL ([…], time 7 day): 0.5 mg/dL | TC ([…], time 7 day): 112.4 mg/dL | TG ([…], time 7 day): 151.6 mg/dL | TP ([…], time 7 day): 6.1 g/dL | gamma-GTP ([…], time 7 day): 1.8 IU/L | A/G ([…], time 14 day): 2 | ALP ([…], time 14 day): 470.8 IU/L | ALT ([…], time 14 day): 30.2 IU/L | AST ([…], time 14 day): 54.2 IU/L | BUN ([…], time 14 day): 17 mg/dL | CRE ([…], time 14 day): 0.6 mg/dL | Ca ([…], time 14 day): 10.4 mg/dL | Cl ([…], time 14 day): 106.6 meq/L | DBIL ([…], time 14 day): 0.014 mg/dL | GLC ([…], time 14 day): 171.2 mg/dL | IP ([…], time 14 day): 7.8 mg/dL | K ([…], time 14 day): 4.9 meq/L | LDH ([…], time 14 day): 102.2 IU/L | Na ([…], time 14 day): 140.2 meq/L | PL ([…], time 14 day): 192.6 mg/dL | RALB ([…], time 14 day): 4.4 g/dL | TBIL ([…], time 14 day): 0.5 mg/dL | TC ([…], time 14 day): 115.2 mg/dL | TG ([…], time 14 day): 145.2 mg/dL | TP ([…], time 14 day): 6.6 g/dL | gamma-GTP ([…], time 14 day): 2.8 IU/L | A/G ([…], time 28 day): 1.6 | ALP ([…], time 28 day): 316.6 IU/L | ALT ([…], time 28 day): 50.4 IU/L | AST ([…], time 28 day): 48.8 IU/L | BUN ([…], time 28 day): 21.8 mg/dL | CRE ([…], time 28 day): 0.7 mg/dL | Ca ([…], time 28 day): 11.2 mg/dL | Cl ([…], time 28 day): 105.6 meq/L | DBIL ([…], time 28 day): 0.014 mg/dL | GLC ([…], time 28 day): 159.6 mg/dL | IP ([…], time 28 day): 9.2 mg/dL | K ([…], time 28 day): 5.3 meq/L | LDH ([…], time 28 day): 157.4 IU/L | Na ([…], time 28 day): 143.4 meq/L | PL ([…], time 28 day): 193 mg/dL | RALB ([…], time 28 day): 4.6 g/dL | TBIL ([…], time 28 day): 0.3 mg/dL | TC ([…], time 28 day): 120.2 mg/dL | TG ([…], time 28 day): 116.2 mg/dL | TP ([…], time 28 day): 7.6 g/dL | gamma-GTP ([…], time 28 day): 11.4 IU/L
